Changes are numbered by the printed parent chain. Where no end group is shown, it is not given here.
Columns and labels:
Experiment in all cases: Homologous whole cell competition binding
Details in all cases: homologous competition of 125I-sCT(8-32), whole cells, mean ± S.E.M., SEM
[1] = biological target: T1, hCTR S364A (Homo sapiens, UniProt P30988, S364A)
T1 construct: c-Myc (N); expressed in transfected cells
T1 sequence (P30988 25-474 S364A): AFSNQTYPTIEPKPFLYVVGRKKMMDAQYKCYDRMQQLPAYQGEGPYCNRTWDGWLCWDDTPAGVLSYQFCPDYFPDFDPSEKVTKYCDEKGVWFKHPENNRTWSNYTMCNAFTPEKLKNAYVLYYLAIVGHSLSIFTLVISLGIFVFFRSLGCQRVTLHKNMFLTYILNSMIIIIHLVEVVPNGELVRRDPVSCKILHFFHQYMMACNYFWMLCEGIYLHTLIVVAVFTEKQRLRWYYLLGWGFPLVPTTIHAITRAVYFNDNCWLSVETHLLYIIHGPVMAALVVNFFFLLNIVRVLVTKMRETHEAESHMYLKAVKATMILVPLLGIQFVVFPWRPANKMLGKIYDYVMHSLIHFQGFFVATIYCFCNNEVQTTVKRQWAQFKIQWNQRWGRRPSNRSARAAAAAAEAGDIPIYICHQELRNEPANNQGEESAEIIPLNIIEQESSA
Procedure: (§1) Homologous radioligand competition was performed on 2.5 × 10^4 cells/well seeded into 96-well trays and cultured overnight. Cells were incubated overnight at 4 °C with two concentrations of ^125I-sCT(8-32) (between 25 and 100 pM; specific activity, 2000 Ci/mmol^9) and serial dilutions of non-iodinated sCT(8-32). Non-bound ligand was removed and bound ligand activity was measured using a γ counter (Wallac Wizard 1470 Gamma Counter, Perkin Elmer, 80% counter efficiency). Values were normalized against non-specific binding (0%) defined by the presence of 1 μM of unlabelled sCT(8-32), and total ligand bound in absence of competing sCT(8-32) (100%).
(§2) IC50 and Bmax values were estimated from competitive inhibition of ^125I-sCT(8-32) binding using a 3-parameter logistic equation (log(inhibitor versus response)) in Prism (v7; Graphpad). Data were corrected for radioligand occupancy using the Cheng-Prusoff equation in Prism; as such data are reported as pKi. Emax and EC50 were estimated from concentration-response curves using with a 3-parameter logistic equation in Prism (v7). These values are a composite of functional affinity, efficacy and stimulus response coupling. The Black and Leff operational model of agonism was applied to separate effects on pathway-specific efficacy (τ) from those that modify ligand functional affinity (pKA). Derived τ values were normalized to experimentally determined levels of cell surface expression to provide a measure of efficacy (τc) that is independent of affinity and altered cell surface receptor expression. pKi, pKA and log τc values for mutant receptors were statistically compared to those of the WT receptor using a one-way analysis of variance (ANOVA) and Dunnett’s post-test. Significance was accepted at P < 0.05.

[2] = biological target: T2, hCTR V358A (Homo sapiens, UniProt P30988, V358A)
T2 construct: c-Myc (N); expressed in transfected cells
T2 sequence (P30988 25-474 V358A): T1 sequence (P30988 25-474 S364A) with V334A, A340S
Procedure: as §1, §2

[3] = biological target: T3, hCTR F356A (Homo sapiens, UniProt P30988, F356A)
T3 construct: c-Myc (N); expressed in transfected cells
T3 sequence (P30988 25-474 F356A): T1 sequence (P30988 25-474 S364A) with F332A, A340S
Procedure: as §1, §2

[4] = biological target: T4, hCTR V375A (Homo sapiens, UniProt P30988, V375A)
T4 construct: c-Myc (N); expressed in transfected cells
T4 sequence (P30988 25-474 V375A): T1 sequence (P30988 25-474 S364A) with A340S, V351A
Procedure: as §1, §2

VLGKLSQELHKLQTYPRTNTGSGTP-NH2 [sCT(8-32)]
Ki [1]: 0.191 nM | Ki [2]: 0.155 nM | Ki [3]: 0.141 nM | Ki [4]: 0.191 nM
